Test results as given in patent US8252748B2, “Peptide derived from neurotensin receptor 3 and use thereof in the treatment of psychiatric diseases” (Centre National de la Recherche Scientifique—CNRS, priority 2007, dated 2012).
No end group written: not given here.

How the values were obtained:
[1] = system: mouse (C57Black/J); experiment: Forced swimming test (FST); assay type: in vivo
Source text: (§1) The inventors conducted three types of behavioral experiments that are regarded as classical for determining the antidepressant activity of a substance (Nestler E. J., Gould E., Manji H., Buncan M., Duman R. S., Greshenfeld H. K., Hen, R. et al. “Preclinical models: status of basic research in depression” Biol Psychiatry. 15, 503-528 (2002) (20) and Cryan, J. & Holmes, A. “The ascent of mouse: advances in modeling human depression and anxiety” Nat Rev Drug Discov. 4, 775-790 (2005) (21)). The effects of the propeptide of the present invention were compared with those of the saline solution in which it is dissolved and with those of fluoxetine, one of the most-used antidepressants in clinical practice. The mouse strain used is C57Black/J strain. TREK-1^−/− mice were also measured in these various tests.
The propeptide is dissolved in 0.9% NaCl saline solution to the desired concentrations: 10^−5 M, 10^−6 M, 10^−7 M and […]. Different volumes are injected depending on the technique used: • intracerebroventricular: 5 μl • intravenous: 100 μl • intraperitoneal: 100 μl
For the ICV injections, a Hamilton syringe (Fisher Bioblock) (trademark) of 10 μl is used, and in the case of IV or IP injections, a needle of 0.45×12 mm is used.
A. Forced Swimming Test (FST) (Cryan & Holmes, 2005 (21)) […]

[2] = system: mouse (C57Black/J); experiment: Tail suspension test (TST); assay type: in vivo; settings: IV 100 μl at 1 μM per animal; 30 min after injection
Source text: as §1
In the next two tests, the propeptide of the present invention was administered by the IV route at a rate of 100 μl at 1 μM per animal.
B. Tail Suspension Test (TST)
(see Cryan, J. & Holmes, A. (2005) (21) and Ripoll, N., David, D., Dailly, E., Hascoet, M. & Bourin, M. “Antidepressant-like effects in various mice strains in the tail suspension” Behav Brain Res. 143(2:193-200 (2003) (22).)
The experiment, 30 min after injection of the test substance in the mouse, consists of suspending the mouse by the tail by means of an adhesive ribbon and measuring the immobility time for 6 min.

[3] = system: hippocampus progenitor cells; experiment: Hippocampal neurogenesis (BrdU-positive cells), 2 weeks of treatment; assay type: in vivo, mouse; settings: 10 μM propeptide injected for 2 weeks
Experimental: Treatments with antidepressants are known to increase neurogenesis in the hippocampus (Santarelli, L., Saxe, M, Gross, C, Surget, A, Battaglia, F, Dulawa, S, Weisstaub, N, Lee, J, Duman, R, Arancio, O, Belzung, C, Hen, R et al. “Requirement of hippocampal neurogenesis for the behavioral effects of antidepressants” Science, 301: 805-809 (2003) (24). This cellular proliferation is measured from the increase of “progenitor” cells that incorporate a marker, 5-bromo-2-deoxyuridine (BrdU), and are transformed to mature neurons. The BrdU is detected by immunohistochemistry.
On day 1, the animals are injected IP with 300 μl of an aqueous solution of 10 mM of BrdU, then put back in the cage.
On day 2, the animals are euthanased and then the tissues are fixed by intracardiac perfusion of a cold solution of 4% paraformaldehyde. The brains are removed and then frozen at −20° C.
Series of 40 μm sections are prepared, so as to cover the entire hippocampal structure, using a vibratome (Leica). One section out of six is retained for measuring the incorporation of BrdU by means of a monoclonal mouse anti-BrdU antibody (Becton Dickinson). […] The peroxidase activity is visualized by hydrolysis of DAB. The cells labeled in this way are counted on each section. […]

[4] = system: C57BL6/J mice; experiment: Kainate-induced epileptic seizures; assay type: in vivo, mouse; settings: IP 100 μl at 10^−5 M; kainate 30 mg/kg IP; 90 minutes after kainate; 10 mice per group (5 in saline group)
Experimental: In this experiment, the mice used were C57BL6/J, […], which received an intraperitoneal injection of 100 μl of physiological saline solution and a “PE 10^−5 M” group, in which the mice received an intraperitoneal injection of 100 μl of a solution containing the peptide of the invention at a concentration of 10^−5M. In each of the experimental groups, epileptic seizures were induced by intraperitoneal injection of 100 μl of kainate at a rate of 30 mg/kg. Observation of the stage of epileptic seizure was carried out 90 minutes after injection of kainate. This was based on observation of the behavior of the mice.
The different stages of epileptic seizure are presented in the document of Tsirka S. E., Gualandris, A., Amaral, D. G., Strickland, S. “Excitotoxin-induced neuronal degeneration and seizure are mediated by tissue plasminogen activator”, Nature, 377: 340-344 (1995) (26).
6 stages are defined for describing the intensity of an epileptic attack: • Stage 1: immobility • Stage 2: movements of the head and of the nape • Stage 3: unilateral clonic activity • Stage 4: bilateral clonic activity • Stage 5: generalized convulsions • Stage 6: death of the animal
Statistical analysis was performed by a two-factor ANOVA test followed by the post-hoc test.

In the case of “APLPRWSGPIGVSWGLR [propeptide, APLPRWSGPIGVSWGLR]”, the “effect on immobility time” value ([1]; ICV, IV or IP injection, 30 min after injection) is reported as “comparable to those produced by fluoxetine”, the “crossing of the blood-brain barrier (BBB)” value ([1]; inferred from activity by intravenous or intraperitoneal as well as central route) is reported as “easily crosses the blood-brain barrier” and the “effect on immobility time” value [2] is reported as “comparable to those produced by fluoxetine”. The “neurogenesis (BrdU-labeled cells)” value [3] was “considerable neurogenesis comparable to that induced by fluoxetine” and the “number of animals that reached stage 5 (generalized convulsions)” value [4] was 2 animals.
